Where two headings read alike, the source gives them in different places.
Key:
HEK-293 kidney cells = experiment: MTT cytotoxicity assay, HEK-293; type: cell-based; conditions: Homo sapiens, HEK293, non-tumor cells, 48 h incubation (b12: 72 h), n = 3, read-out: IC50 ± SEM HEK-293
Experimental: (§1) The 3-acyl-2,5-bis(phenylamino)-1,4-benzoquinones 2a–q were evaluated for their in vitro cytotoxic activities against normal human embryonic kidney cells (HEK-293 cells) and two human cancer cell lines (T24 and DU-145 cells) in 72 h drug exposure assays. The cytotoxic activities of the new compounds were measured using conventional microculture tetrazolium reduction assays. The cytotoxic activities are expressed in terms of IC50. Doxorubicin, a clinically used anti-cancer agent, was taken as a positive control.
(§2) Human cancer cell lines T24 (bladder) and DU-145 (prostate), and non-tumor HEK-293 cells were obtained from the American Type Culture Collection (ATCC, Manassas, VA, USA). The cultures were maintained at a density of 1× 10^5 cells/mL and the medium was changed at 48- to 72-h intervals. They were cultured in high-glucose Dulbecco’s modified Eagle medium (Gibco, Grand Island, NY, USA) supplemented with 10% fetal calf serum, penicillin (100 U/mL), and streptomycin (100 μg/mL). All cultures were kept at 37 °C in 95% air/5% CO2 at 100% humidity. Phosphate-buffered saline (PBS) was purchased from Gibco. Cells were incubated at the indicated times at 37 °C, with or without quinones at various concentrations.
(§3) The cytotoxicity of the quinones was assessed by following the reduction of MTT (3-(4,5-Dimethylthiazol-2-yl)-2,5-diphenyltetrazolium bromide) to formazan blue. Cells were seeded into 96-well plates at a density of 10,000 cells/well for 24 h and then incubated for 48 h, with or without the quinone derivatives. Doxorubicin was used as the standard chemotherapeutic agent (positive control). Cells were then washed twice with warm PBS and incubated with MTT (0.5 mg/mL) for 2 hours at 37 °C. Blue formazan crystals were solubilized by adding 100 µL DMSO/well, and the optical density of the coloured solutions was subsequently read at 550 nm. Results are expressed as percentage of MTT reduction, compared to untreated control conditions. The IC50 values were calculated using the GraphPad Prism software (San Diego, CA, USA).

T24 and DU-145 cells = experiment: MTT cytotoxicity assay, both cancer cell lines; type: cell-based; conditions: Homo sapiens; mean of T24 and DU-145 IC50
Experimental: as §1, §2, §3

T24 (bladder) cells = experiment: MTT cytotoxicity assay, T24; type: cell-based, human; conditions: 48 h incubation (b12: 72 h), n = 3, read-out: IC50 ± SEM T24
Experimental: as §1, §2, §3

DU-145 (prostate) cells = experiment: MTT cytotoxicity assay, DU-145; type: cell-based; conditions: Homo sapiens, 48 h incubation (b12: 72 h), n = 3, read-out: IC50 ± SEM DU-145
Experimental: as §1, §2, §3

[1] = Half-wave potentials by cyclic voltammetry in acetonitrile; type: physicochemical; conditions: rt, Pt electrode, vs non-aqueous Ag/Ag+, given as negative of potential; for −E^I 1/2: first one-electron reduction, 0.1 M tetraethylammonium tetrafluoroborate; for −E^II 1/2: second one-electron reduction
Experimental: The members of the 3-acyl-2,5-bis(phenylamino)-1,4-benzoquinone series 2a–q were evaluated for their half-wave potentials (E^I 1/2 and E^II 1/2). They were measured by cyclic voltammetry in acetonitrile at room temperature, using a platinum electrode and 0.1 M tetraethylamoniumtetrafluoroborate as the supporting electrolyte. The voltammograms were run in the potential range from 0.0 to −2.0 V versus non-aqueous Ag/Ag^+.

[2] = tested on: human colon adenocarcinoma; set-up: method as in PMID 3746824; conditions: cited from earlier work

| −E^I 1/2 [1] | −E^II 1/2 [1] | Structure (SMILES) | IC50 (HEK-293 kidney cells) | IC50 (T24 and DU-145 cells) | IC50 (T24 (bladder) cells; Homo sapiens) | IC50 (DU-145 (prostate) cells) | in vitro inhibitory activity against human colon adenocarcinoma proliferation [2] | IC50 (T24 (bladder) cells) |
| --- | --- | --- | --- | --- | --- | --- | --- | --- |
| 565 mV | 1170 mV | CC(=O)C1=C(Nc2ccccc2)C(=O)C=C(Nc2ccccc2)C1=O [2a, 3-Acetyl-2,5-bis(phenylamino)-1,4-benzoquinone] | > 100 µM | > 98 µM | > 100 µM | 96 ± 7.9 µM | – | – |
| 570 mV | 1150 mV | CCCC(=O)C1=C(Nc2ccccc2)C(=O)C=C(Nc2ccccc2)C1=O [2b, 3-Butiryl-2,5-bis(phenylamino)-1,4-benzoquinone] | > 100 µM | > 96.1 µM | > 100 µM | 92.2 ± 8.7 µM | – | – |
| 560 mV | 1140 mV | COc1ccc(C(=O)C2=C(Nc3ccccc3)C(=O)C=C(Nc3ccccc3)C2=O)cc1OC [2e, 3-(3,4-Dimethoxybenzoyl)-2,5-bis(phenylamino)-1,4-benzoquinone] | > 100 µM | 52.9 µM | 58.2 ± 7.1 µM | 47.7 ± 4.2 µM | – | – |
| 560 mV | 1120 mV | COc1cc(C(=O)C2=C(Nc3ccccc3)C(=O)C=C(Nc3ccccc3)C2=O)cc(OC)c1OC [2f, 3-(3,4,5-Trimethoxybenzoyl)-2,5-bis(phenylamino)-1,4-benzoquinone] | 85.8 ± 0.9 µM | 36.1 µM | 51.8 ± 6.2 µM | 20.4 ± 2.1 µM | – | – |
| 570 mV | 870 mV | O=C1C=C(Nc2ccccc2)C(=O)C(C(=O)c2ccco2)=C1Nc1ccccc1 [2g, 3-(Furan-2-carbonyl)-2,5-bis(phenylamino)-1,4-benzoquinone] | 61.7 ± 4.2 µM | 40 µM | 40.2 ± 4 µM | 39.9 ± 3.6 µM | – | – |
| 500 mV | 1030 mV | O=C1C=C(Nc2ccccc2)C(=O)C(C(=O)c2cccs2)=C1Nc1ccccc1 [2h, 3-(Thiophen-2-carbonyl)-2,5-bis(phenylamino)-1,4-benzoquinone] | > 100 µM | 78.2 µM | 75.6 ± 9.1 µM | 80.9 ± 9.7 µM | – | – |
| 560 mV | 1040 mV | O=C1C=C(Nc2ccc(F)cc2)C(=O)C(C(=O)c2ccccc2)=C1Nc1ccc(F)cc1 [2n, 3-Benzoyl-2,5-bis-[(4-fluorophenyl)amino]-1,4-benzoquinone] | > 100 µM | > 87.2 µM | 74.5 ± 2.2 µM | > 100 µM | – | – |
| 550 mV | 920 mV | COc1cc(C(=O)C2=C(Nc3ccc(F)cc3)C(=O)C=C(Nc3ccc(F)cc3)C2=O)ccc1O [2o, 3-(4-Hydroxy-3-methoxybenzoyl)-2,5-bis-[(4-fluorophenyl)amino]-1,4-benzoquinone] | > 100 µM | > 100 µM | > 100 µM | > 100 µM | – | – |

Continued, molecule first:

| Structure (SMILES) | −E^I 1/2 [1] | −E^II 1/2 [1] | IC50 (HEK-293 kidney cells) | IC50 (T24 and DU-145 cells) | IC50 (T24 (bladder) cells; Homo sapiens) | IC50 (DU-145 (prostate) cells) | in vitro inhibitory activity against human colon adenocarcinoma proliferation [2] | IC50 (T24 (bladder) cells) |
| --- | --- | --- | --- | --- | --- | --- | --- | --- |
| COc1cc(NC2=CC(=O)C(Nc3cc(OC)c(OC)c(OC)c3)=C(C(=O)c3ccccc3)C2=O)cc(OC)c1OC [2i, 3-Benzoyl-2,5-bis-[(3,4,5-trimethoxyphenyl)amino]-1,4-benzoquinone] | 800 mV | 950 mV | > 100 µM | > 96.4 µM | > 100 µM | 92.9 ± 1.4 µM | – | – |
| COc1ccc(C(=O)C2=C(Nc3cc(OC)c(OC)c(OC)c3)C(=O)C=C(Nc3cc(OC)c(OC)c(OC)c3)C2=O)cc1 [2j, 3-(4-Methoxybenzoyl)-2,5-bis-[(3,4,5-trimethoxyphenyl)amino]-1,4-benzoquinone] | 740 mV | 950 mV | 56.9 ± 5.2 µM | 78.8 µM | 85.3 ± 1.9 µM | 72.4 ± 2.6 µM | – | – |
| COc1cc(C(=O)C2=C(Nc3cc(OC)c(OC)c(OC)c3)C(=O)C=C(Nc3cc(OC)c(OC)c(OC)c3)C2=O)ccc1O [2k, 3-(4-Hydroxy-3-methoxybenzoyl)-2,5-bis-[(3,4,5-trimethoxyphenyl)amino]-1,4-benzoquinone] | 610 mV | 1010 mV | 28.3 ± 1.5 µM | > 72.9 µM | > 100 µM | 45.9 ± 3.2 µM | – | – |
| COc1cc(NC2=CC(=O)C(Nc3cc(OC)c(OC)c(OC)c3)=C(C(=O)c3ccco3)C2=O)cc(OC)c1OC [2l, 3-(Furan-2-carbonyl)-2,5-bis-[(3,4,5-trimethoxyphenyl)amino]-1,4-benzoquinone] | 790 mV | 930 mV | 33 ± 4.8 µM | 35 µM | 47.1 ± 2 µM | 23 ± 2.3 µM | – | – |
| COc1cc(NC2=CC(=O)C(Nc3cc(OC)c(OC)c(OC)c3)=C(C(=O)c3cccs3)C2=O)cc(OC)c1OC [2m, 3-(Thiophen-2-carbonyl)-2,5-bis-[(3,4,5-trimethoxyphenyl)amino]-1,4-benzoquinone] | 850 mV | 1010 mV | 30.7 ± 3.1 µM | 55.9 µM | 63.2 ± 0.6 µM | 48.6 ± 3 µM | – | – |
| O=C1C=C(Nc2ccc(F)cc2)C(=O)C(C(=O)c2ccco2)=C1Nc1ccc(F)cc1 [2p, 3-(Furan-2-carbonyl)-2,5-bis-[(4-fluorophenyl)amino]-1,4-benzoquinone] | 680 mV | 950 mV | 72.8 ± 7 µM | > 95 µM | > 100 µM | 90 ± 6.4 µM | – | – |
| O=C1C=C(Nc2ccc(F)cc2)C(=O)C(C(=O)c2cccs2)=C1Nc1ccc(F)cc1 [2q, 3-(Thiophen-2-carbonyl)-2,5-bis-[(4-fluorophenyl)amino]-1,4-benzoquinone] | 730 mV | 980 mV | > 100 µM | > 100 µM | > 100 µM | > 100 µM | – | – |
| COc1ccc(C(=O)C2=C(Nc3ccc(F)cc3)C(=O)C=C(Nc3ccc(F)cc3)C2=O)cc1 [2ñ, 3-(4-Methoxybenzoyl)-2,5-bis-[(4-fluorophenyl)amino]-1,4-benzoquinone] | 710 mV | 860 mV | > 100 µM | > 100 µM | > 100 µM | > 100 µM | – | – |
| O=C1C=C(Nc2ccccc2)C(=O)C=C1Nc1ccccc1 [A, 2,5-bis(phenylamino)benzoquinone] | – | – | – | – | – | – | good in vitro inhibitory activity | – |
| COc1cccc2c1C(=O)c1c(O)c3c(c(O)c1C2=O)C[C@@](O)(C(=O)CO)C[C@@H]3O[C@H]1C[C@H](N)[C@H](O)[C@H](C)O1 [DOX, Doxorubicin, reference compound] | – | – | – | 0.69 µM | 0.43 µM | 0.93 ± 0.06 µM | – | 0.46 ± 0.08 µM |

From paper PMC6539005, “Half-Wave Potentials and In Vitro Cytotoxic Evaluation of 3-Acylated 2,5-Bis(phenylamino)-1,4-benzoquinones on Cancer Cells” (Molecules, 2019)
